The target of experiment [1] is mMC1R (Mus musculus, UniProt Q01727). As to the kind of experiment: AlphaScreen cAMP agonist assay, HEK293 cells stably expressing mMC1R. Particulars: for mMC1R partial agonist efficacy bin: sigmoidal curve, efficacy <90% of NDP-MSH.
Protocol: (§1) Pyrrolidine bis-cyclic guanidine compounds were assessed for biological activity using the AlphaScreen cAMP kit with HEK293 cells stably expressing the mMC1R, mMC3R, mMC4R, or mMC5R, as previously described [37, 38, 39]. […] Compounds were assayed for agonist activity in a 7-point dose–response curve (10^−3 to 10^−9 M). […] The purified compounds were dissolved in DMSO at a stock concentration of 10^−1 M and assayed using HEK293 cells stably expressing the mouse MC1R, MC3R, MC4R, and MC5R using the AlphaScreen cAMP bioassay (PerkinElmer, Waltham, MA, USA) according to the manufacturer’s instructions and as previously described [37, 38, 39].
(§2) Briefly, cells 70−90% confluent were dislodged with Versene (Gibco, Waltham, MA, USA) at 37 °C and 10,000 cells/well were plated in a 384-well plate (Optiplate, PerkinElmer, Waltham, MA, USA) with 10 μL of freshly prepared stimulation buffer (1× HBSS, 5 mM HEPES, 0.5 mM IBMX, 0.1% BSA, pH = 7.4) with 0.5 μg of anti-cAMP acceptor beads per well. The cells were stimulated with the addition of 5 μL of stimulation buffer containing compound or forskolin (10^−4 M) and incubated in the dark at room temperature for 2 h. Following stimulation, streptavidin donor beads (0.5 μg) and biotinylated cAMP (0.62 μmol) were added to the wells in a green light environment with 10 μL of lysis buffer (5 mM HEPES, 0.3% Tween-20, 0.1% BSA, pH = 7.4) and the plates were incubated in the dark at room temperature for an additional 2 h. Plates were read on a Enspire (PerkinElmer, Waltham, MA, USA) Alpha plate reader using a pre-normalized assay protocol (set by the manufacturer).
Experiment [2] concerns the target mMC5R (Mus musculus, UniProt P41149). The experiment is described as follows: AlphaScreen cAMP agonist assay, HEK293 cells stably expressing mMC5R. Particulars: for mMC5R percent maximal stimulatory response (compared to NDP-MSH): at 1 mM, not enough stimulation to determine EC50; for mMC5R partial agonist efficacy bin: sigmoidal curve, efficacy <90% of NDP-MSH; for mMC5R agonist efficacy (in words): relative to NDP-MSH, full = >90% receptor activation.
Protocol: as §1, §2

Experiment [3] addresses mMC4R (Mus musculus, UniProt P56450). As to the kind of experiment: AlphaScreen cAMP agonist assay, HEK293 cells stably expressing mMC4R. Particulars: for mMC4R partial agonist efficacy bin: sigmoidal curve, efficacy <90% of NDP-MSH.
Experiment [4] concerns the target mMC3R (Mus musculus, UniProt P33033). The experiment is described as follows: AlphaScreen cAMP agonist assay, HEK293 cells stably expressing mMC3R. Conditions: for mMC3R partial agonist efficacy bin: sigmoidal curve, efficacy <90% of NDP-MSH.
Protocol: as §1, §2
The mark [5] stands for this setting: at 1 mM, not enough stimulation to determine EC50.

Read-outs that look alike come from different tables or passages of the source.

Chain of mMC4R (P56450 whole entry): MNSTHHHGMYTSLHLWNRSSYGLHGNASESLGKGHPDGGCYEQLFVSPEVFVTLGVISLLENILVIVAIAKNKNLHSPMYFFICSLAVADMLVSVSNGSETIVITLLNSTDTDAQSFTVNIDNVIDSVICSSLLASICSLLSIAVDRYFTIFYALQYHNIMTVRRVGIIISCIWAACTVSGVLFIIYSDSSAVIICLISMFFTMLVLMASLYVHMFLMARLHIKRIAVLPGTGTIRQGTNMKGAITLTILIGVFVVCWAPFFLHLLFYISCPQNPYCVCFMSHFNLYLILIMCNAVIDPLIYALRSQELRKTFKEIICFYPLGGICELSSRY
Chain of mMC5R (P41149 whole entry): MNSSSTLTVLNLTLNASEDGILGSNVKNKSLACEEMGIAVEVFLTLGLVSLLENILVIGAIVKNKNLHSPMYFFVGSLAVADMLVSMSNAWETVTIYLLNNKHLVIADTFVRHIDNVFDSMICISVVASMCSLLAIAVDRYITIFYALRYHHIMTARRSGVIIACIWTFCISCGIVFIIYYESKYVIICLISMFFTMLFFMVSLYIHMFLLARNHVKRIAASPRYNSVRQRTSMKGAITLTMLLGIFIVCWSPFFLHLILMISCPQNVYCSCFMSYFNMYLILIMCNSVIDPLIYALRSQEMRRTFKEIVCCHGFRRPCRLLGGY
Chain of mMC3R (P33033 whole entry): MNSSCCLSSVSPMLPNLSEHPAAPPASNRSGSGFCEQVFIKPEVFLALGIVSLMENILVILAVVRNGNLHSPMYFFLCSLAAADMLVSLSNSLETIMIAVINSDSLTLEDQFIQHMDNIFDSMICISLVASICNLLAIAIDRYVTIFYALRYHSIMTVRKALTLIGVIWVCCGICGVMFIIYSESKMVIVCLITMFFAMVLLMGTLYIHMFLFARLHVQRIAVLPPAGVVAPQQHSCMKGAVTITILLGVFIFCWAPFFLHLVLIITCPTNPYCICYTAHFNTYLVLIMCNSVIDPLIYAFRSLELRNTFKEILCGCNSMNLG
Chain of mMC1R (Q01727 whole entry): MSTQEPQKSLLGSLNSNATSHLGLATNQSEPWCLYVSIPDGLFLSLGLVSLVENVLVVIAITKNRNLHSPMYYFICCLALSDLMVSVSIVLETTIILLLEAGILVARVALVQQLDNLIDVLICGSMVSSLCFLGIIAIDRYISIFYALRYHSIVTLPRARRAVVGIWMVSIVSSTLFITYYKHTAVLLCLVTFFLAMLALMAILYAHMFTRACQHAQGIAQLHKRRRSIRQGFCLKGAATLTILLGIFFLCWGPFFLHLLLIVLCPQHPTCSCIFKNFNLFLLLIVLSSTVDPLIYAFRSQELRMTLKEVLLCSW

For the compound `CCN1C(=N)N([C@H](Cc2ccccc2)CN2CCC[C@H]2CN2C(=N)NC[C@H]2CC(C)C)C[C@H]1[C@H](C)O` [Compound 2718.004], the EC50 in experiment [1] is 20.6 µM; in experiment [2], over 1000 µM; in experiment [3] it was over 1000 µM; in experiment [4] it was over 1000 µM. For the same compound, the “mMC1R partial agonist efficacy bin” value in experiment [1] is “A (A (20–50% receptor activation))”.
On to `CC(C)C[C@@H]1CNC(=N)N1C[C@@H]1CCCN1C[C@@H](Cc1ccccc1)N1CCNC1=N` [Compound 2718.006], for which the “mMC1R percent maximal stimulatory response (compared to NDP-MSH)” value in experiment [1] (setting [5]) was 40% @ 1 mM. In experiment [2], the “mMC5R percent maximal stimulatory response (compared to NDP-MSH)” value worked out at 30% @ 1 mM. Further, in experiment [3] (setting [5]), the “mMC4R percent maximal stimulatory response (compared to NDP-MSH)” value is on record as 20% @ 1 mM. The compound further displayed an EC50 in experiment [4] of over 1000 µM.
As for `CCN1C(=N)N([C@H](CC2CCCCC2)CN2CCC[C@H]2CN2C(=N)NC[C@H]2CC(C)C)C[C@H]1[C@H](C)O` [Compound 2718.010], in experiment [1], a half-maximal effect (EC50) was put at 5 ± 1 µM and the “mMC1R partial agonist efficacy bin” value is given as “B (B (51–90% receptor activation))”. For the same compound, in experiment [2], the midpoint of the response, the EC50, lay at 45.5 µM and the “mMC5R partial agonist efficacy bin” value is recorded as “A (A (20–50% receptor activation))”. Besides, the “mMC4R percent maximal stimulatory response (compared to NDP-MSH)” value in experiment [3] (setting [5]) amounted to 20% @ 1 mM. The same compound had an EC50 in experiment [4] of over 1000 µM.
On to `CC(C)C[C@@H]1CNC(=N)N1C[C@@H]1CCCN1C[C@@H](CC1CCCCC1)N1C[C@@H]([C@H](C)O)NC1=N` [Compound 2718.011], for which the results for the EC50 in experiment [1], in experiment [3] and in experiment [4] were 15 µM, over 1000 µM and over 1000 µM, respectively. Also, the “mMC1R partial agonist efficacy bin” value in experiment [1] is reported as “B (B (51–90% receptor activation))”.
`CC(C)C[C@@H]1CNC(=N)N1C[C@@H]1CCCN1C[C@@H](CC1CCCCC1)N1CCNC1=N` [Compound 2718.012]: the 50% effective concentration (EC50) in experiment [1] was 15 µM; in experiment [3] it was over 1000 µM; in experiment [4] it was over 1000 µM. Also, the “mMC1R partial agonist efficacy bin” value in experiment [1] is listed as “B (B (51–90% receptor activation))”.
`CCC[C@@H]1CN([C@H](CC2CCCCC2)CN2CCC[C@H]2CN2C(=N)NC[C@H]2C(C)C)C(=N)N1CC` [Compound 2718.014]: the concentration giving a half-maximal response (EC50) is 9 ± 3 µM in experiment [1] and over 1000 µM in experiment [3]. Besides, the “mMC1R partial agonist efficacy bin” value in experiment [1] is “B (B (51–90% receptor activation))”. Besides, in experiment [2], the “mMC5R percent maximal stimulatory response (compared to NDP-MSH)” value was 50% @ 1 mM. For the same compound, the “mMC3R percent maximal stimulatory response (compared to NDP-MSH)” value in experiment [4] (setting [5]) is recorded as 20% @ 1 mM.
For `CCC[C@@H]1CN([C@H](CC2CCCCC2)CN2CCC[C@H]2CN2C(=N)NC[C@H]2C(C)C)C(=N)N1` [Compound 2718.015], the concentration giving a half-maximal response (EC50) in experiment [1] is 11 µM; in experiment [3], over 1000 µM; in experiment [4], over 1000 µM. Moreover, the “mMC1R partial agonist efficacy bin” value in experiment [1] is given as “B (B (51–90% receptor activation))”. The “mMC5R percent maximal stimulatory response (compared to NDP-MSH)” value in experiment [2] amounted to 35% @ 1 mM.
As for `CC(C)[C@@H]1CNC(=N)N1C[C@@H]1CCCN1C[C@@H](CC1CCCCC1)N1CCNC1=N` [Compound 2718.016], in experiment [1], the midpoint of the response, the EC50, lay at 30 µM and the “mMC1R partial agonist efficacy bin” value is on record as “B (B (51–90% receptor activation))”. The concentration for a half-maximal effect (EC50) in experiment [4] was over 1000 µM.
As for `CC(O)C1CNC(=N)N1CC1CCC(C(C)(C)C)CC1` (stereo not drawn) [Compound 2718.020], the “mMC1R percent maximal stimulatory response (compared to NDP-MSH)” value in experiment [1] (setting [5]) was 70% @ 1 mM. Besides, in experiment [2], a half-maximal response (EC50) required 140 µM and the “mMC5R agonist efficacy (in words)” value is “fully activate”. Moreover, in experiment [3] (setting [5]), the “mMC4R percent maximal stimulatory response (compared to NDP-MSH)” value was 55% @ 1 mM. Besides, the “mMC3R percent maximal stimulatory response (compared to NDP-MSH)” value in experiment [4] (setting [5]) is given as 70% @ 1 mM.
`CCCCC1CNC(=N)N1CC1CCC(C(C)(C)C)CC1` (stereo not drawn) [Compound 2718.021]: the “mMC1R percent maximal stimulatory response (compared to NDP-MSH)” value in experiment [1] (at 100 µM) is given as 80% @ 100 µM. Moreover, in experiment [2] (read-out: mMC5R EC50, agonist, mean ± SEM, at least three independent experiments, >1,000,000 = no agonist activity up to 1 mM), the 50% effective concentration (EC50) worked out at 17 µM. In addition, the “fold decreased mMC5R agonist potency” value in experiment [2] (relative to 2718.003) worked out at 14 fold. Moreover, the “mMC5R agonist efficacy (in words)” value in experiment [2] was “fully activate”. For the same compound, the “mMC4R percent maximal stimulatory response (compared to NDP-MSH)” value in experiment [3] (at 100 µM) is 50% @ 100 µM. Further, the “mMC3R percent maximal stimulatory response (compared to NDP-MSH)” value in experiment [4] (at 100 µM) came to 50% @ 100 µM.
Turning to `CC(C)C[C@@H]1CNC(=N)N1C[C@@H]1CCCN1CCN1C[C@@H]([C@H](C)O)N(CC2CCC(C(C)(C)C)CC2)C1=N` (stereo partly drawn) [Compound 2718.023], in experiment [1] (setting [5]), the “mMC1R percent maximal stimulatory response (compared to NDP-MSH)” value is recorded as 85% @ 1 mM. In addition, the “mMC5R percent maximal stimulatory response (compared to NDP-MSH)” value in experiment [2] came out at 80% @ 1 mM. In experiment [3], the half-maximal effective concentration (EC50) was determined as 40 µM and the “mMC4R partial agonist efficacy bin” value is “A (A (20–50% receptor activation))”. Also, the “mMC3R percent maximal stimulatory response (compared to NDP-MSH)” value in experiment [4] (setting [5]) is reported as 30% @ 1 mM.
With `CC(C)C[C@@H]1CNC(=N)N1C[C@H]1CCCN1C[C@@H](CC1CCCCC1)N1C[C@@H]([C@H](C)O)N(CC2CCC(C(C)(C)C)CC2)C1=N` (stereo partly drawn) [Compound 2718.047], the EC50 in experiment [1] was found to be 0.87 ± 0.07 µM; in experiment [2], 0.45 ± 0.03 µM; in experiment [3], 3.1 ± 0.2 µM. Further, in experiment [3], the “mMC4R partial agonist efficacy bin” value is recorded as “B (B (51–90% receptor activation))”.
Consider `CC(C)C[C@H]1CNC(=N)N1C[C@@H]1CCCN1C[C@@H](CC1CCCCC1)N1C[C@@H]([C@H](C)O)N(CC2CCC(C(C)(C)C)CC2)C1=N` (stereo partly drawn) [Compound 2718.048], for which the 50% effective concentration (EC50) in experiment [1] worked out at 0.39 ± 0.03 µM; in experiment [2], 0.65 ± 0.08 µM; in experiment [4] it was 2.9 ± 0.2 µM. Besides, the “mMC3R partial agonist efficacy bin” value in experiment [4] is on record as “B (B (51–90% receptor activation))”.
As to `CC(C)C[C@H]1CNC(=N)N1C[C@H]1CCCN1C[C@H](CC1CCCCC1)N1C[C@H]([C@@H](C)O)N(CC2CCC(C(C)(C)C)CC2)C1=N` (stereo partly drawn) [Compound 2718.049], the values for the concentration giving a half-maximal response (EC50) in experiment [1] and in experiment [2] were 8 ± 2 µM and 2.8 ± 0.1 µM, respectively. Further, in experiment [1], the “mMC1R partial agonist efficacy bin” value was “B (B (51–90% receptor activation))”. Also, the “fold decreased mMC5R agonist potency” value in experiment [2] (relative to 2718.002) stood at 10 fold.
`CC(C)CC1CNC(=N)N1CC1CCCN1CC(Cc1ccc2ccccc2c1)N1CC(C(C)O)N(CC2CCC(C(C)(C)C)CC2)C1=N` (stereo not drawn) [Compound 2718.055]: the EC50 in experiment [1] was found to be 1 ± 0.2 µM; in experiment [2], 8 ± 2 µM; in experiment [4] it was 7 ± 3 µM. For the same compound, the “mMC3R partial agonist efficacy bin” value in experiment [4] is recorded as “B (B (51–90% receptor activation))”.
As to `CC(C)CC1CNC(=N)N1CC1CCCN1CC(Cc1c[nH]c2ccccc12)N1CC(C(C)O)N(CC2CCC(C(C)(C)C)CC2)C1=N` (stereo not drawn) [Compound 2718.056], in experiment [1], the EC50 was 6 ± 3 µM and the “mMC1R partial agonist efficacy bin” value was “B (B (51–90% receptor activation))”. This compound also came in with a concentration for a half-maximal effect (EC50) in experiment [2] of 14 µM. Also, the “fold decreased mMC5R agonist potency” value in experiment [2] (relative to 2718.002) was 50 fold.
The compound `CC(C)CC1CNC(=N)N1CC1CCCN1CC(Cc1ccc(O)cc1)N1CC(C(C)O)N(CC2CCC(C(C)(C)C)CC2)C1=N` (stereo not drawn) [Compound 2718.057] came in with an EC50 in experiment [1] of 0.5 ± 0.1 µM. In addition, in experiment [2], the 50% effective concentration (EC50) worked out at 6 ± 2 µM and the “mMC5R partial agonist efficacy bin” value is given as “B (B (51–90% receptor activation))”. In experiment [4], a half-maximal effect (EC50) was put at 11 µM and the “mMC3R partial agonist efficacy bin” value is “B (B (51–90% receptor activation))”.
Consider `CC(C)CC1CNC(=N)N1CC1CCCN1CC(C1CCCCC1)N1CC(C(C)O)N(CC2CCC(C(C)(C)C)CC2)C1=N` (stereo not drawn) [Compound 2718.059], for which the half-maximal effective concentration (EC50) in experiment [2] is 6 ± 1 µM. In addition, the “fold decreased mMC5R agonist potency” value in experiment [2] (relative to 2718.002) is recorded as 20 fold. Further, in experiment [4], the EC50 was 11 µM and the “mMC3R partial agonist efficacy bin” value is listed as “A (A (20–50% receptor activation))”.

Source of the values: publication PMC10299128, “The Parallel Structure–Activity Relationship Screening of Three Compounds Identifies the Common Agonist Pharmacophore of Pyrrolidine Bis-Cyclic Guanidine Melanocortin-3 Receptor (MC3R) Small-Molecule Ligands” (International Journal of Molecular Sciences, 2023).
